Laboratory results as given in patent US10266537B2, “3-acetylenyl-pyrazole-pyrimidine derivative, and preparation method therefor and uses thereof” (Si Chuan University, priority 2015, dated 2019).
Each block holds one molecule with its values, some of them ahead of it.

Columns and labels:
[1] = test system: MDA-MB-453; assay: cells; conditions: Homo sapiens, MDA-MB-453, 72 h, read-out: Proliferation inhibitory activity IC50
[2] = test system: HBL-1; assay: cells; conditions: Homo sapiens, HBL1, 72 h, read-out: Proliferation inhibitory activity IC50
[3] = test system: THP-1; assay: Cell proliferation inhibition assay (MTT); assay type: cell-based; conditions: Homo sapiens, 72 hours, read-out: Proliferation inhibitory activity IC50
[4] = test system: PC-3; assay: Cell proliferation inhibition assay (MTT); assay type: cell-based; conditions: Homo sapiens, 72 hours, read-out: Proliferation inhibitory activity IC50
[5] = molecular target: Rsk2(h) (Homo sapiens (Human), UniProt P51812); assay: Kinase inhibition assay (KinaseProfiler, 33P-ATP); assay type: biochemical; conditions: read-out: The percentage of the remaining active protein
[6] = molecular target: Rse (Homo sapiens (Human), UniProt Q06418); assay: Kinase inhibition assay (KinaseProfiler, 33P-ATP); assay type: biochemical; conditions: Rse(h), read-out: The percentage of the remaining active protein
[7] = molecular target: EGFR(T790M, L858R) (Homo sapiens (Human), UniProt P00533, L858R/T790M); assay: Kinase inhibition assay (KinaseProfiler, 33P-ATP); assay type: biochemical; conditions: EGFR(T790M, L858R)(h), read-out: The percentage of the remaining active protein
[8] = molecular target: Aurora-B(h) (Homo sapiens (Human), UniProt Q96GD4); assay: Kinase inhibition assay (KinaseProfiler, 33P-ATP); assay type: biochemical; conditions: read-out: The percentage of the remaining active protein
[9] = molecular target: PKCδ(h) (Homo sapiens (Human), UniProt Q05655); assay: Kinase inhibition assay (KinaseProfiler, 33P-ATP); assay type: biochemical; conditions: read-out: The percentage of the remaining active protein
[10] = molecular target: EGFR(L858R)(h) (Homo sapiens (Human), UniProt P00533, L858R); assay: Kinase inhibition assay (KinaseProfiler, 33P-ATP); assay type: biochemical; conditions: read-out: The percentage of the remaining active protein
[11] = molecular target: PI3KC2g(h) (Homo sapiens (Human), UniProt O75747); assay: Kinase inhibition assay (KinaseProfiler, 33P-ATP); assay type: biochemical; conditions: read-out: The percentage of the remaining active protein
[12] = molecular target: JNK3(h) (Homo sapiens (Human), UniProt P53779); assay: Kinase inhibition assay (KinaseProfiler, 33P-ATP); assay type: biochemical; conditions: read-out: The percentage of the remaining active protein
Chain of JNK3(h) (P53779 whole entry): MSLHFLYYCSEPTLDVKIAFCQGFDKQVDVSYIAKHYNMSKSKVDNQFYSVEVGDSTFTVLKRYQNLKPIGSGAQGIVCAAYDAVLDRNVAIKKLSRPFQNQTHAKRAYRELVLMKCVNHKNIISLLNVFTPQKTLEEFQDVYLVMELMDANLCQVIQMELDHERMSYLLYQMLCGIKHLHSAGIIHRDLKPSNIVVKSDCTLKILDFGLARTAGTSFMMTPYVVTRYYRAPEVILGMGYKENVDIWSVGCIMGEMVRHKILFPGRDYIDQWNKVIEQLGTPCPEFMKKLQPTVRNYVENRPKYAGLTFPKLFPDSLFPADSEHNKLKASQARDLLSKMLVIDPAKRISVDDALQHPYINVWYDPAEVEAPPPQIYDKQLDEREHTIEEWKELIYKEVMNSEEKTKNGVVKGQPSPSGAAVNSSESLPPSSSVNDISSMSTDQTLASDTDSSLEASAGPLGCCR

[13] = molecular target: DAPK2(h) (Homo sapiens (Human), UniProt Q9UIK4); assay: Kinase inhibition assay (KinaseProfiler, 33P-ATP); assay type: biochemical; conditions: read-out: The percentage of the remaining active protein
Chain of DAPK2(h) (Q9UIK4 whole entry): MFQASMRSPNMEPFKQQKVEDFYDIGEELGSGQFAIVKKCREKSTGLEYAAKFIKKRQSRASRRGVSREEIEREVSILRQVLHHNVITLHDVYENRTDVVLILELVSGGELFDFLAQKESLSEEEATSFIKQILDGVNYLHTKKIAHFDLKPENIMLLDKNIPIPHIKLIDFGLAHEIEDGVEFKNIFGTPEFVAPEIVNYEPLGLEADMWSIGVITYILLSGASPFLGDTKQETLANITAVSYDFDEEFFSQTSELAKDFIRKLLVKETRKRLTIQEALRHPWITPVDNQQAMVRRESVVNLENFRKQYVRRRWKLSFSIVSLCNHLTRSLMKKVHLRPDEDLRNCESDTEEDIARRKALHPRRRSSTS

[14] = test system: CK1(y); assay: Kinase inhibition assay (KinaseProfiler, 33P-ATP); assay type: biochemical, yeast; conditions: 10 μM
[15] = molecular target: BrSK2(h) (Homo sapiens (Human), UniProt Q8IWQ3); assay: Kinase inhibition assay (KinaseProfiler, 33P-ATP); assay type: biochemical; conditions: read-out: The percentage of the remaining active protein
[16] = molecular target: DRAK1(h) (Homo sapiens (Human), UniProt Q9UEE5); assay: Kinase inhibition assay (KinaseProfiler, 33P-ATP); assay type: biochemical; conditions: read-out: The percentage of the remaining active protein
[17] = molecular target: DMPK(h) (Homo sapiens (Human), UniProt Q09013); assay: Kinase inhibition assay (KinaseProfiler, 33P-ATP); assay type: biochemical; conditions: read-out: The percentage of the remaining active protein
Chain of DMPK(h) (Q09013 whole entry): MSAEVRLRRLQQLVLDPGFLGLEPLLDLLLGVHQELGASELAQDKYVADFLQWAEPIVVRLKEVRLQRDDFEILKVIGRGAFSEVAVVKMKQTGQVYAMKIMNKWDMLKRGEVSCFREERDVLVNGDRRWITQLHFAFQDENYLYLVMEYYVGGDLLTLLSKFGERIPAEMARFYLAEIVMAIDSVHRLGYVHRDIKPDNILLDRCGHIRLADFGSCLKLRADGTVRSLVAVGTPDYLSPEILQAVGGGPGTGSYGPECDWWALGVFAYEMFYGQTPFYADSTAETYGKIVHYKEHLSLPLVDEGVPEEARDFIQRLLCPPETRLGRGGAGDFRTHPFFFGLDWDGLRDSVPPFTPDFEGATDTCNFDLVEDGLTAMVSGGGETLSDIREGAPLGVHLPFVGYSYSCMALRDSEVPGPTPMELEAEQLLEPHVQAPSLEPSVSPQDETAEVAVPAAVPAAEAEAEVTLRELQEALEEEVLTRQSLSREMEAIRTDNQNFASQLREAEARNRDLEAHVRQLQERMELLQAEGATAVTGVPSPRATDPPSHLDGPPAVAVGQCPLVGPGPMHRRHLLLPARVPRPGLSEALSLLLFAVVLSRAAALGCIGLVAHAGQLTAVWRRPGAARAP

[18] = molecular target: GCK(h) (Homo sapiens (Human), UniProt Q12851); assay: Kinase inhibition assay (KinaseProfiler, 33P-ATP); assay type: biochemical; conditions: read-out: The percentage of the remaining active protein
Chain of GCK(h) (Q12851 whole entry): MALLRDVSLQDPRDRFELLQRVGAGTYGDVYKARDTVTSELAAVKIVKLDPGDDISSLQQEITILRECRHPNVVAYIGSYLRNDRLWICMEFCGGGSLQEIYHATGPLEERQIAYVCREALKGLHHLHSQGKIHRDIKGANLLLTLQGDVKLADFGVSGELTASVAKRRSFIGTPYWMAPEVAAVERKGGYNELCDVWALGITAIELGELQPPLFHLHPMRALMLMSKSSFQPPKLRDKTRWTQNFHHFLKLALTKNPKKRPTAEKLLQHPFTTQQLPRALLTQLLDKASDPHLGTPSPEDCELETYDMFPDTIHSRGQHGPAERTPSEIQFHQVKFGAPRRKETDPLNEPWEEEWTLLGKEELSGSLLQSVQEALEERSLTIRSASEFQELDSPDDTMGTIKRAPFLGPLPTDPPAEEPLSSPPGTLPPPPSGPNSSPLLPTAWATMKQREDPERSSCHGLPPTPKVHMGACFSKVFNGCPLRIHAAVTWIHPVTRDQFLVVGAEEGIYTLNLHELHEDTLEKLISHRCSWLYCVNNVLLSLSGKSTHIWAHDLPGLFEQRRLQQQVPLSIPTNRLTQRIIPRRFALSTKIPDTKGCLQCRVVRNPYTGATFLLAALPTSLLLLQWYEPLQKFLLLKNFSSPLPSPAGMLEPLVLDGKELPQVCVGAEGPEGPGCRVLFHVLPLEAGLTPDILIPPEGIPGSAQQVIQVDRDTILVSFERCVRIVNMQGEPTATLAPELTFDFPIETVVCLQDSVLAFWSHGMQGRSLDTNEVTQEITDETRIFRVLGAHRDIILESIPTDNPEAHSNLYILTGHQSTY

[19] = molecular target: PDGFRα (D842V) (Homo sapiens (Human), UniProt P16234, D842V); assay: Kinase inhibition assay (KinaseProfiler, 33P-ATP); assay type: biochemical; conditions: PDGFRα(D842V)(h), read-out: The percentage of the remaining active protein
[20] = molecular target: MSSK1(h) (Homo sapiens (Human), UniProt Q9UPE1); assay: Kinase inhibition assay (KinaseProfiler, 33P-ATP); assay type: biochemical; conditions: read-out: The percentage of the remaining active protein
[21] = molecular target: PKG1β(h) (Homo sapiens (Human), UniProt Q13976); assay: Kinase inhibition assay (KinaseProfiler, 33P-ATP); assay type: biochemical; conditions: read-out: The percentage of the remaining active protein
Chain of PKG1β(h) (Q13976 other isoform, or with tags, fused parts or gaps): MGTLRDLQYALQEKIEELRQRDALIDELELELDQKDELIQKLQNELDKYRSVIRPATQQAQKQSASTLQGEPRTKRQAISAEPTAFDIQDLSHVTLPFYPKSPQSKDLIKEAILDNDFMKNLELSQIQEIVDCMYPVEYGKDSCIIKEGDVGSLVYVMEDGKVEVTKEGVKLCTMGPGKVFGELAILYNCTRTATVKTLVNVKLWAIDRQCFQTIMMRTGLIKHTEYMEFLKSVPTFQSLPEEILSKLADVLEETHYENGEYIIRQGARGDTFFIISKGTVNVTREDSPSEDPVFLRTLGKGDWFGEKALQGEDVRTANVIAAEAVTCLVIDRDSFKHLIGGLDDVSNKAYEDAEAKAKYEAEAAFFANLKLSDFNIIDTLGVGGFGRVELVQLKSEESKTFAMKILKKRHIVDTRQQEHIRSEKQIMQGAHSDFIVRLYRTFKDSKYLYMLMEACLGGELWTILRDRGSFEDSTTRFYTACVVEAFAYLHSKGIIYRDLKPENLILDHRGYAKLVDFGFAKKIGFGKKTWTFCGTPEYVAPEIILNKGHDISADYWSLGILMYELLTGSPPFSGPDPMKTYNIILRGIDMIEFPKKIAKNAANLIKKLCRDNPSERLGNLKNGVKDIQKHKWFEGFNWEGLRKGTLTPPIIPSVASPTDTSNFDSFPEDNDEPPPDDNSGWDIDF

[22] = molecular target: SGK3(h) (Homo sapiens (Human), UniProt Q96BR1); assay: Kinase inhibition assay (KinaseProfiler, 33P-ATP); assay type: biochemical; conditions: read-out: The percentage of the remaining active protein
[23] = molecular target: PKD2(h) (Homo sapiens (Human), UniProt Q9BZL6); assay: Kinase inhibition assay (KinaseProfiler, 33P-ATP); assay type: biochemical; conditions: read-out: The percentage of the remaining active protein
[24] = molecular target: CDK5/p35(h) (Homo sapiens (Human), UniProt Q00535); assay: Kinase inhibition assay (KinaseProfiler, 33P-ATP); assay type: biochemical; conditions: read-out: The percentage of the remaining active protein
[25] = molecular target: PAK6(h) (Homo sapiens (Human), UniProt Q9NQU5); assay: Kinase inhibition assay (KinaseProfiler, 33P-ATP); assay type: biochemical; conditions: read-out: The percentage of the remaining active protein
[26] = molecular target: EphA7 (Homo sapiens (Human), UniProt Q15375); assay: Kinase inhibition assay (KinaseProfiler, 33P-ATP); assay type: biochemical; conditions: EphA7(h), read-out: The percentage of the remaining active protein
[27] = molecular target: EphB1 (Homo sapiens (Human), UniProt P54762); assay: Kinase inhibition assay (KinaseProfiler, 33P-ATP); assay type: biochemical; conditions: EphB1(h), read-out: The percentage of the remaining active protein
Chain of EphB1 (P54762 18-984): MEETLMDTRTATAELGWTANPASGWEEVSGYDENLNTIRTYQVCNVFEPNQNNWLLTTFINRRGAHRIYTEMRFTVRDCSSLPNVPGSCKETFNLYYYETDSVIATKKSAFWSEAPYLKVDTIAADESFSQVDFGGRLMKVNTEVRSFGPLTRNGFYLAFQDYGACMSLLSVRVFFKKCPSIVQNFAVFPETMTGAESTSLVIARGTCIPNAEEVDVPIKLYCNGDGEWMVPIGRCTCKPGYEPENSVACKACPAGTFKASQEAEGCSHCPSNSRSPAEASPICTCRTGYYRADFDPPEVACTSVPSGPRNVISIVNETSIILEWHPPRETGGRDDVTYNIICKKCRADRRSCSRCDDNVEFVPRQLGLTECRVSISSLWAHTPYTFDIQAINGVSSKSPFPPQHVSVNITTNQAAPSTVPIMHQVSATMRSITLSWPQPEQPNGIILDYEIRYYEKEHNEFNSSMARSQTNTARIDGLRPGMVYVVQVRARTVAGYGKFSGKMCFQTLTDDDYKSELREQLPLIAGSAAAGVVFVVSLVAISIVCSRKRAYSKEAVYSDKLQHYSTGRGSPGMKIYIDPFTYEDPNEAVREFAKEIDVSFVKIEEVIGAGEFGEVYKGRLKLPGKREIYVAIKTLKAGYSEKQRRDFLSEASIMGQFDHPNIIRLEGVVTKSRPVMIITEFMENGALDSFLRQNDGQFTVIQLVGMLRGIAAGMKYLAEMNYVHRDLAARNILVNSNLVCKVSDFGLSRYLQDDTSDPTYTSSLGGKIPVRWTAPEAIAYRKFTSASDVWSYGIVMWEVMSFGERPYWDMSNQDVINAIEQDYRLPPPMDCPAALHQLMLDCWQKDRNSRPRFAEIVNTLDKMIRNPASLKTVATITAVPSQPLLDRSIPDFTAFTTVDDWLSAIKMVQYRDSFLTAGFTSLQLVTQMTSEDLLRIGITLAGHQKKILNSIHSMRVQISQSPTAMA

[28] = molecular target: PAK4(h) (Homo sapiens (Human), UniProt O96013); assay: Kinase inhibition assay (KinaseProfiler, 33P-ATP); assay type: biochemical; conditions: read-out: The percentage of the remaining active protein
Chain of PAK4(h) (O96013 whole entry): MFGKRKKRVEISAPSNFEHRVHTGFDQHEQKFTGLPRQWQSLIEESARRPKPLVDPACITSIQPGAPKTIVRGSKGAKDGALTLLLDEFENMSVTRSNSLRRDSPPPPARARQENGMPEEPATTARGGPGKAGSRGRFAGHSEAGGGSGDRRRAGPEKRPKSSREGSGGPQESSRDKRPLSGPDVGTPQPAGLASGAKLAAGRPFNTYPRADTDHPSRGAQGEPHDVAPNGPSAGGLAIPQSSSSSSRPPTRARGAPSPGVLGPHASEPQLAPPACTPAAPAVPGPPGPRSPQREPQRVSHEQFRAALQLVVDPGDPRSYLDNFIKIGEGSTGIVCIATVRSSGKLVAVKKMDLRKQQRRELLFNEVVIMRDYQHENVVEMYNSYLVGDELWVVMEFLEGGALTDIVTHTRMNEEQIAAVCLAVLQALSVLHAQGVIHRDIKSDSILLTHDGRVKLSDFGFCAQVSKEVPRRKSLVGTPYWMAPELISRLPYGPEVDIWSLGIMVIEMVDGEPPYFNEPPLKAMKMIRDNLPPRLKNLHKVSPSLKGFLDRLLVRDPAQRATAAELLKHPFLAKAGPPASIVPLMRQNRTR

[29] = molecular target: SIK(h) (Homo sapiens (Human), UniProt P57059); assay: Kinase inhibition assay (KinaseProfiler, 33P-ATP); assay type: biochemical; conditions: read-out: The percentage of the remaining active protein
[30] = molecular target: CK1δ(h) (Homo sapiens (Human), UniProt P48730); assay: Kinase inhibition assay (KinaseProfiler, 33P-ATP); assay type: biochemical; conditions: read-out: The percentage of the remaining active protein
[31] = molecular target: Ret (V804L)(h) (Homo sapiens (Human), UniProt P07949, V804L); assay: Kinase inhibition assay (KinaseProfiler, 33P-ATP); assay type: biochemical; conditions: read-out: The percentage of the remaining active protein
[32] = molecular target: SAPK2b (Homo sapiens (Human), UniProt Q15759); assay: Kinase inhibition assay (KinaseProfiler, 33P-ATP); assay type: biochemical
Chain of SAPK2b (Q15759 whole entry): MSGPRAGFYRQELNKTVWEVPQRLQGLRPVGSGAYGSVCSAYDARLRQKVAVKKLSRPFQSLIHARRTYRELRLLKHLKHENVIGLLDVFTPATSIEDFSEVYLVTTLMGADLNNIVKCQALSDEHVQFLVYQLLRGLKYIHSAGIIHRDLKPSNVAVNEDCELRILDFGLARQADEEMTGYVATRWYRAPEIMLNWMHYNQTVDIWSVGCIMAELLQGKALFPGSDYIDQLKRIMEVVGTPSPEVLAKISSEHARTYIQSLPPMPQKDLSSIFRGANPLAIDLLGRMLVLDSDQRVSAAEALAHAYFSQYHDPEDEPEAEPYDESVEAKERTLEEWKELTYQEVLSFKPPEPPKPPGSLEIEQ

[33] = molecular target: A-Raf(h) (Homo sapiens (Human), UniProt P10398); assay: Kinase inhibition assay (KinaseProfiler, 33P-ATP); assay type: biochemical; conditions: read-out: The percentage of the remaining active protein
[34] = molecular target: CDK2/cyclinE(h) (Homo sapiens (Human), UniProt P24941); assay: Kinase inhibition assay (KinaseProfiler, 33P-ATP); assay type: biochemical; conditions: read-out: The percentage of the remaining active protein
[35] = molecular target: PI3 Kinase (p110b/p85a)(h) (Homo sapiens (Human), UniProt P42338); assay: Kinase inhibition assay (KinaseProfiler, 33P-ATP); assay type: biochemical; conditions: read-out: The percentage of the remaining active protein

SMILES: CCn1nc(C#Cc2cc(C(=O)Nc3ccc(CN4CCN(C)CC4)c(C(F)(F)F)c3)ccc2C)c2c(N)ncnc21 [Compound 3]
IC50 [1]: 3.37 µM
IC50 [2]: ~10 µM

IC50 [3]: 7.38 µM
IC50 [4]: 3.97 µM
SMILES: Cc1ccc(NC(=O)c2cccc(C(F)(F)F)c2)cc1C#Cc1nn(C2CCN(C)CC2)c2ncnc(N)c12 [Compound 31]

remaining activity at 10 µM [5]: 44%
remaining activity at 10 µM [6]: 2%
remaining activity at 10 µM [7]: 0%
remaining activity at 10 µM [8]: 475%
remaining activity at 10 µM [9]: 96%
remaining activity at 10 µM [10]: 21%
remaining activity at 10 µM [11]: 98%
remaining activity at 10 µM [12]: 40%
remaining activity at 10 µM [13]: 95%
The percentage of the remaining active protein [14]: 86%
remaining activity at 10 µM [15]: 93%
remaining activity at 10 µM [16]: 140%
remaining activity at 10 µM [17]: 91%
remaining activity at 10 µM [18]: 49%
remaining activity at 10 µM [19]: 0%
remaining activity at 10 µM [20]: 56%
remaining activity at 10 µM [21]: 115%
remaining activity at 10 µM [22]: 98%
remaining activity at 10 µM [23]: 108%
remaining activity at 10 µM [24]: 127%
remaining activity at 10 µM [25]: 92%
remaining activity at 10 µM [26]: 0%
remaining activity at 10 µM [27]: -1%
remaining activity at 10 µM [28]: 88%
remaining activity at 10 µM [29]: 7%
remaining activity at 10 µM [30]: 88%
remaining activity at 10 µM [31]: 1%
remaining activity at 10 µM ([32]; SAPK2b(h), 10 μM, read-out: The percentage of the remaining active protein): -2%
IC50 ([32]; SAPK2b, ATP at Km): 0.084 µM
remaining activity at 10 µM [33]: 7%
remaining activity at 10 µM [34]: 102%
remaining activity at 10 µM [35]: 78%
SMILES: Cc1ccc(NC(=O)c2ccc(C)c(C(F)(F)F)c2)cc1C#Cc1nn([C@H]2CC[C@H](O)CC2)c2ncnc(N)c12 [Compound 93]
